Results: the Kinase Knowledgebase extract (Sharma et al. 2016)
Several values for one entry are separate records, joined by “and”; a condition that tells them apart may be missing. Identical values can stand only once.

What follows are compounds tested against MAPK14 (UniProt Q16539) (assay: Inhibition of MAPK14 Kinase Activity). Conditions: not given.
Chain of MAPK14 (Q16539 whole entry, looked up): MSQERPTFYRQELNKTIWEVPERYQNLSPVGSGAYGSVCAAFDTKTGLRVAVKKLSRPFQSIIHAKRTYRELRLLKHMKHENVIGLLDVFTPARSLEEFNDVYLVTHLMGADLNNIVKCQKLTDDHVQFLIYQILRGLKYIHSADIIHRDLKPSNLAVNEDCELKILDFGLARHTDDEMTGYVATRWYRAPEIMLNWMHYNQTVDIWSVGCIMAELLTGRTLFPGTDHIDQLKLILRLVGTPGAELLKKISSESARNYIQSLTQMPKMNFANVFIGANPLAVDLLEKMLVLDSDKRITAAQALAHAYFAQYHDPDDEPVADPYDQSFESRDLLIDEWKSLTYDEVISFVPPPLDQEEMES
Compound `CNC(=O)c1cc(Oc2ccc(NC(=O)Nc3ccc(Cl)c(C(F)(F)F)c3)c(F)c2)ccn1` has an IC50 of 24 nM. `Cc1cccc(Cl)c1Nc1nc2ccc(N3CCN[C@@H](C)C3)nc2n2cncc12` was tested, and the IC50 was 380 nM. `NC(=O)c1cc(Cl)c(N2C(=O)NCc3nc(Sc4ccc(F)cc4)ccc32)c(Cl)c1` gave an IC50 of 23 nM. In the case of `CS(=O)(=O)CCNc1ncc2cc(Oc3ccc(F)cc3F)ccc2n1`, the IC50 is reported as 2000 nM. `O=c1ncn2nc(Sc3ccccc3Br)ccc2c1-c1c(Cl)cccc1Cl` gave an IC50 of 250 nM. Work on `CSc1nc(-c2ccnc(NC(C)c3ccccc3)c2)c(-c2ccc(F)cc2)n1C` (stereo not given) yielded an IC50 of 27000 nM. Compound `CCC(CO)(CO)Nc1ncc2cc(Oc3ccc(F)cc3F)ccc2n1` has an IC50 of less than 100 nM. With `Cc1ccc(-n2nc(C3(C)CC3)cc2NC(=O)Nc2cnc(OC3CCN(C(=O)C4(C)CC4)CC3)c3ccccc23)cc1` the IC50 was 34 nM. `C[C@H](C(=O)O)N1CCC(c2cc3c(ccc(=O)n3-c3c(Cl)cccc3Cl)c(-c3ccc(F)cc3Cl)n2)CC1` was tested, and the IC50 was 3.2 nM. `FC(F)(F)c1cnc(Nc2ccc(Br)cc2)nc1Nc1ccc2nc[nH]c2c1` was tested, and the IC50 was greater than 1000 nM. `CSc1nc(-c2ccc(F)cc2)c(-c2ccncc2)[nH]1` showed an IC50 of 630 nM. For `CSc1nc(-c2ccc(F)cc2)c(-c2ccnc(NC(C)c3ccccc3)c2)n1C` (stereo not given), the IC50 was 220 nM. With `CN1N=C(c2ccccc2Cl)Oc2cnc(NC3CCOCC3)nc21` the IC50 was 189 nM. With `COc1cc2cnc(NC3CCOCC3)nc2n(C)c1=O` the IC50 was 1600 nM. `CC[C@@H](N)C(=O)Nc1nc(C)c(-c2ccnc(Nc3cccc([N+](=O)[O-])c3)n2)s1` was tested, and the IC50 was greater than 100000 nM. In the case of `O=c1ncn2nc(Sc3cccc(F)c3)ccc2c1-c1c(Cl)cccc1Cl`, the IC50 is reported as 450 nM. With `CCn1c(=O)n(CC)c2cc(-c3[nH]c(-c4ccc(S(C)(=O)=O)cc4)nc3-c3ccc(F)cc3)ccc21` the IC50 was 4000 nM. `OCC(O)CNc1ncc2cc(Oc3ccc(F)cc3F)ccc2n1` (stereo not given) gave an IC50 of less than 2000 nM. `CN1N=C(c2ccccc2F)Oc2cnc(NC3CCOCC3)nc21` showed an IC50 of 2200 nM. Compound `O=C(c1cccc2[nH]ccc12)N1CCN(Cc2ccccc2)CC1` has an IC50 of 1540 nM. For `CNc1nc(C)c(-c2ccnc(Nc3ccc(N4CCOCC4)cc3)n2)s1`, the IC50 was greater than 100000 nM. For `CCOc1cc2cnc(NC(CCOC)CCOC)nc2[nH]c1=O`, the IC50 was 7700 nM. `COc1cc2ncnc(Nc3cc(NC(=O)c4cccc(N(C)C)c4)ccc3C)c2cc1OC` showed an IC50 of 31 nM.

Same assay, conditions: concentration not given here
Compound `O=C1NCc2nc(Sc3ccc(Sc4ccc(F)cc4)cc3)ccc2N1c1c(Cl)cccc1Cl` has an inhibition of -6%. `Nc1n[nH]c(N)c1N=Nc1ccc(O)cc1` gave an inhibition of 18%.

Each compound was assayed against MAPK14 (human) (UniProt Q16539) (assay: Assessment of MAPK14 Kinase Activity). Conditions: not given.
Chain of MAPK14 (human) (Q16539 whole entry, looked up): as above
With `CSc1nc(-c2ccc(F)cc2)c(-c2ccncc2)[nH]1` the IC50 was 69 nM and 70 nM.

Each compound was assayed against PIK3CG (human) (UniProt P48736) (assay: Inhibition of PIK3CG Kinase Activity). Conditions: not given.
Chain of PIK3CG (human) (P48736 whole entry, looked up): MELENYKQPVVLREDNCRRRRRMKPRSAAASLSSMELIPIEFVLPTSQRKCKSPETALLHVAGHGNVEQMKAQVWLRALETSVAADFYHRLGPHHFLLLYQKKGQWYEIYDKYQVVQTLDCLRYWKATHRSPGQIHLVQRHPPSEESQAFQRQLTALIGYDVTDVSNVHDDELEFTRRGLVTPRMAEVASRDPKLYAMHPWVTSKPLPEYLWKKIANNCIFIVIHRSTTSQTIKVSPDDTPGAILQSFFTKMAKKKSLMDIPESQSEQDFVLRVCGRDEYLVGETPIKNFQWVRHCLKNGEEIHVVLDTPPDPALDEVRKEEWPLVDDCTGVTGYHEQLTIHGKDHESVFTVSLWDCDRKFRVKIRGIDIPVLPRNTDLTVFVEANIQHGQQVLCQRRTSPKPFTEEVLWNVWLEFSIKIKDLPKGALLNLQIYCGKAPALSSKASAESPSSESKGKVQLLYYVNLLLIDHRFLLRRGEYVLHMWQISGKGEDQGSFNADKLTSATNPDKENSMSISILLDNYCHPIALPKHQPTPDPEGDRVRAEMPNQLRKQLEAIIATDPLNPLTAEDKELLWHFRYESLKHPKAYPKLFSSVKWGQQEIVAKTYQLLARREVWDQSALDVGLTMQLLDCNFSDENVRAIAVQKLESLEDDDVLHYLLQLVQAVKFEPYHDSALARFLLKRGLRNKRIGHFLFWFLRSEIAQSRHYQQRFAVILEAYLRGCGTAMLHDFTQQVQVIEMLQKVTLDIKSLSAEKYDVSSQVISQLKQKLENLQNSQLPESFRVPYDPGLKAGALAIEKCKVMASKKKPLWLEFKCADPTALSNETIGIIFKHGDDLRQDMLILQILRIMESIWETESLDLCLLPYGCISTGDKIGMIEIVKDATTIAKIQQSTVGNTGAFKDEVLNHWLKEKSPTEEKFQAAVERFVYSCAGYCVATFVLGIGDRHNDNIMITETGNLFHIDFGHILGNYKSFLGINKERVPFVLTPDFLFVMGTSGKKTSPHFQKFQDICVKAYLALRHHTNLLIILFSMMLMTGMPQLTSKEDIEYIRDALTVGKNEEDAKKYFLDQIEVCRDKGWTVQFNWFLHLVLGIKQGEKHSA
With `CC(=O)Nc1nc(C)c(-c2csc(NCCC(N)=O)n2)s1` the IC50 was 64 nM. In the case of `COc1ccc(-c2ccc3nc(N)cn3n2)cc1OC`, the IC50 is reported as less than 200 nM. `COc1cc2sc(C(=O)Nc3nnn[nH]3)c(OCC3(C)COC3)c2cc1OC` gave an IC50 of 445 nM. Work on `CC1(C)CCN(C(=O)c2ccc(NC(=O)Nc3ccc(-c4nc(O[C@H]5CCOC5)nc(N5CCOCC5)n4)cc3)cc2)CC1` yielded an IC50 of 7.2 nM and a Kd of 6.5 nM. `O=C1NC(=O)/C(=C/c2ccc3ncn(-c4ccc5c(c4)CCN5S(=O)(=O)CCCN4CCOCC4)c3n2)S1` gave an IC50 of 20 nM. `Cc1cc(NC(=O)CCNC(=O)Nc2cn3cc(Br)ccc3n2)no1` showed a Ki of 4980 nM. `CCCn1c(C(=O)Nc2nnn[nH]2)c(-c2ccccc2)c2cc(OC)c(OC)cc21` gave an IC50 of 4140 nM. For `COc1ccc(OC)c(Nc2nc3ncccc3nc2NS(=O)(=O)c2ccccc2)c1`, the IC50 was 73 nM. For `COc1cc2sc(C(=O)Nc3nnn[nH]3)c(OC3CCCC[C@H]3C)c2cc1OC` (stereo not given in full), the IC50 was 101 nM. `COc1cc(Nc2nc3ccccc3nc2NS(=O)(=O)c2ccc(CN(C)C)cc2)cc(OC)c1` was tested, and the IC50 was 27 nM. In the case of `CCn1c(C(=O)Nc2nnn[nH]2)c(-c2ccccc2)c2cc(OC)c(OC)cc21`, the IC50 is reported as 6600 nM. In the case of `COc1ccc(OC)c(Nc2nc3ccccc3nc2NS(=O)(=O)c2cccc(C#N)c2)c1`, the IC50 is reported as 430 nM. `OCc1cccc(-c2nc(N3CCOCC3)c3cnn(C4CCNCC4)c3n2)c1` gave an IC50 of 510 nM. With `COc1ccc(OC)c(Nc2nc3ccccc3nc2NS(=O)(=O)c2cccnc2)c1` the IC50 was 56 nM. In the case of `Cc1nc(NC(=O)NCCC(=O)OC(C)(C)C)sc1-c1ccncc1`, the IC50 is reported as 50 nM. `COc1cc2c(O[C@@H]3CCC[C@@H](C)C3)c(C(=O)Nc3nn[nH]n3)sc2cc1C` was tested, and the IC50 was 24 nM. For `COc1ccc(OC)c(Nc2nc3ccccc3nc2NS(=O)(=O)c2cn(C)cn2)c1`, the IC50 was 80 nM. For `CC(C)n1nnc(CCNC(=O)Nc2cn3cc(-c4cncc(F)c4)ccc3n2)n1`, the Ki was 168 nM. `COC[C@H]1OC(=O)c2coc3c2[C@@]1(C)C1=C(C3=O)[C@@H]2CCC(=O)[C@@]2(C)C[C@H]1O` gave an IC50 of 26 nM. `CC(C)(C)NS(=O)(=O)c1cncc(-c2ccc3nc(N)cn3n2)c1` showed an IC50 of less than 200 nM. `O=C1NC(=S)S/C1=C\c1ccc2ncnc(N3CCC(F)CC3)c2n1` was tested, and the IC50 was 2 nM. In the case of `COc1cc2sc(C(=O)Nc3nnn[nH]3)c(OC3C[C@@H](C)C[C@@H](C)C3)c2cc1OC` (stereo not given in full), the IC50 is reported as 32 nM.

Same assay, conditions: concentration not given here
`O=C1NC(=O)/C(=C/c2ccc(-c3ccc4ccccc4n3)o2)S1` showed an inhibition of 13%.
